Experimental data: the supplement of paper PMC10307832

Tests used:
Assay in all cases: relative viability (nuclei count vs DMSO), 5 days (fraction); higher = more cells survive
GSK-J4 + Navitoclax = compound: CCOC(=O)CCNc1cc(N2CCc3ccccc3CC2)nc(-c2ccccn2)n1 [GSK-J4] + CC1(C)CCC(c2ccc(Cl)cc2)=C(CN2CCN(c3ccc(C(=O)NS(=O)(=O)c4ccc(N[C@H](CCN5CCOCC5)CSc5ccccc5)c(S(=O)(=O)C(F)(F)F)c4)cc3)CC2)C1 [Navitoclax] (partner 0.5 µM)
Procedure, shortened: (§1)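 Relative viability was taken as the ratio of nuclei in treated wells to nuclei in vehicle wells. Lung cancer cell lines in 1536-well plates received compounds by pin tool one day after seeding, either one drug alone or a fixed anchor-drug dose plus five library-drug doses (not always all listed) in √10 steps. Nuclei were counted on 4× images after 5 days of treatment, and values are medians of duplicate plates.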

GSK-J4 + Lapatinib = compound: CCOC(=O)CCNc1cc(N2CCc3ccccc3CC2)nc(-c2ccccn2)n1 [GSK-J4] + CS(=O)(=O)CCNCc1ccc(-c2ccc3ncnc(Nc4ccc(OCc5cccc(F)c5)c(Cl)c4)c3c2)o1 [Lapatinib] (partner 2 µM)
Procedure, shortened: as §1

AZ3146 + Luminespib = compound: CN1CCC(CC1)OC2=CC(=C(C=C2)NC3=NC=C4C(=N3)N(C(=O)N4C)C5CCCC5)OC [AZ3146] + CCNC(=O)c1noc(-c2cc(C(C)C)c(O)cc2O)c1-c1ccc(CN2CCOCC2)cc1 [Luminespib] (partner 0.01 µM)
Procedure, shortened: as §1

AZ3146 + Dasatinib = compound: CN1CCC(CC1)OC2=CC(=C(C=C2)NC3=NC=C4C(=N3)N(C(=O)N4C)C5CCCC5)OC [AZ3146] + Cc1nc(Nc2ncc(C(=O)Nc3c(C)cccc3Cl)s2)cc(N2CCN(CCO)CC2)n1 [Dasatinib] (partner 0.075 µM)
Procedure, shortened: as §1

Cell Line	relative viability (GSK-J4 + Navitoclax; first compound 0.5 µM)	relative viability (GSK-J4 + Navitoclax; first compound 1.581 µM)	relative viability (GSK-J4 + Navitoclax; first compound 5 µM)	relative viability (GSK-J4 + Navitoclax; first compound 15.81 µM)	relative viability (GSK-J4 + Navitoclax; first compound 50 µM)	relative viability (GSK-J4 + Lapatinib; first compound 0.5 µM)	relative viability (GSK-J4 + Lapatinib; first compound 1.581 µM)	relative viability (GSK-J4 + Lapatinib; first compound 5 µM)	relative viability (GSK-J4 + Lapatinib; first compound 15.81 µM)	relative viability (GSK-J4 + Lapatinib; first compound 50 µM)	relative viability (AZ3146 + Luminespib; first compound 0.08 µM)	relative viability (AZ3146 + Luminespib; first compound 0.253 µM)	relative viability (AZ3146 + Luminespib; first compound 0.8 µM)	relative viability (AZ3146 + Luminespib; first compound 2.53 µM)	relative viability (AZ3146 + Luminespib; first compound 8 µM)	relative viability (AZ3146 + Dasatinib; first compound 0.08 µM)	relative viability (AZ3146 + Dasatinib; first compound 0.253 µM)	relative viability (AZ3146 + Dasatinib; first compound 0.8 µM)	relative viability (AZ3146 + Dasatinib; first compound 2.53 µM)	relative viability (AZ3146 + Dasatinib; first compound 8 µM)
IA-LM	0.747	0.718	0.802	0.666	0.105	0.767	0.598	0.862	0.624	0.0952	–	–	–	–	–	–	–	–	–	–
HCC-44	0.973	0.91	1.08	0.817	0.898	0.964	0.647	0.909	1.07	0.957	0.884	1.02	1.17	1.02	0.999	–	–	–	–	–
A549	1.08	1.15	1.24	1.24	1.2	0.952	1.03	–	1.1	0.902	–	–	–	–	–	–	–	–	–	–
NCI-H358	–	–	–	–	–	0.452	0.414	0.434	0.456	0.367	0.407	0.383	0.51	0.508	0.394	0.2	0.135	0.149	0.153	0.209
HCC-366	1.08	0.806	–	1.02	1.03	0.969	0.786	–	0.937	0.602	–	–	–	–	–	0.483	0.57	0.56	0.588	0.572
ABC-1	–	–	–	–	–	1.03	1.17	1.21	0.935	1.05	0.331	0.483	0.782	0.568	0.532	0.493	0.56	0.562	0.713	0.421
